Values quoted from earlier work in patent US12606918B2, “Production of sanitizing fluid using in situ electrolysis” (APPLIED PHAGE GMBH, priority 2024, dated 2026).
Like-named read-outs stand apart in the source and are kept apart here.

SMILES: [O-][Cl+2]([O-])O [chlorate]
- ADI (allowable daily intake) (as ClO3^−): 0.0024 mg/kg BW·day
- ADI (allowable daily intake) (as NaClO3): 0.003 mg/kg BW·day
- Arfd (acute reference dose) (as NaClO3): 0.003 mg/kg BW·day
